pIC50: −log10 of the molar value.
Columns and labels:
Test in all cases: KAM-matrix competition in K562 lysate;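 for 0.001 uM KAM: median log10 fold change of treatment over DMSO control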;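 for 0.01 uM KAM: median log10 fold change of treatment over DMSO control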;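 for 0.1 uM KAM: median log10 fold change of treatment over DMSO control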;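 for 1 uM KAM: median log10 fold change of treatment over DMSO control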;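 for 10 uM KAM: median log10 fold change of treatment over DMSO control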
Format in all cases: binding
MAST3 = target: T1, MAST3 (Homo sapiens, UniProt O60307)
T1 construct: endogenous in cells; host or cells: K562 cells (lysate)
Experimental: (§1) Supplement 12953_2017_125_MOESM1_ESM.zip/MS_Supp Info.xlsx, sheet "KAM" | column: 10 uM KAM; 1 uM KAM; 0.1 uM KAM; 0.01 uM KAM; 0.001 uM KAM; RB50

MST1R = target: T2, MST1R (Homo sapiens, UniProt Q04912);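 for 0.001 uM KAM: median log10 fold change of treatment over DMSO control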;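 for 0.01 uM KAM: median log10 fold change of treatment over DMSO control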;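 for 0.1 uM KAM: median log10 fold change of treatment over DMSO control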;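 for 1 uM KAM: median log10 fold change of treatment over DMSO control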;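 for 10 uM KAM: median log10 fold change of treatment over DMSO control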
T2 construct: endogenous in cells; host or cells: K562
Experimental: as §1

RPS6KB1 = target: T3, RPS6KB1 (Homo sapiens, UniProt P23443);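 for 0.001 uM KAM: median log10 fold change of treatment over DMSO control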;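 for 0.01 uM KAM: median log10 fold change of treatment over DMSO control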;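 for 0.1 uM KAM: median log10 fold change of treatment over DMSO control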;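 for 1 uM KAM: median log10 fold change of treatment over DMSO control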;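 for 10 uM KAM: median log10 fold change of treatment over DMSO control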
T3 construct: endogenous in cells; host or cells: K562
Experimental: as §1

SIK3 = target: T4, SIK3 (Homo sapiens, UniProt Q9Y2K2);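 for 0.001 uM KAM: median log10 fold change of treatment over DMSO control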;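 for 0.01 uM KAM: median log10 fold change of treatment over DMSO control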;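 for 0.1 uM KAM: median log10 fold change of treatment over DMSO control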;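 for 1 uM KAM: median log10 fold change of treatment over DMSO control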;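 for 10 uM KAM: median log10 fold change of treatment over DMSO control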
T4 construct: endogenous in cells; host or cells: K562
Experimental: as §1

STK25 = target: T5, STK25 (Homo sapiens, UniProt O00506);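 for 0.001 uM KAM: median log10 fold change of treatment over DMSO control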;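 for 0.01 uM KAM: median log10 fold change of treatment over DMSO control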;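 for 0.1 uM KAM: median log10 fold change of treatment over DMSO control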;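 for 1 uM KAM: median log10 fold change of treatment over DMSO control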;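 for 10 uM KAM: median log10 fold change of treatment over DMSO control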
T5 construct: endogenous in cells; host or cells: K562 cell lysate
Experimental: as §1

TAOK1 = target: T6, TAOK1 (Homo sapiens, UniProt Q7L7X3)
T6 construct: endogenous in cells; host or cells: K562 cell lysate
T6 sequence (Q7L7X3 1-1001): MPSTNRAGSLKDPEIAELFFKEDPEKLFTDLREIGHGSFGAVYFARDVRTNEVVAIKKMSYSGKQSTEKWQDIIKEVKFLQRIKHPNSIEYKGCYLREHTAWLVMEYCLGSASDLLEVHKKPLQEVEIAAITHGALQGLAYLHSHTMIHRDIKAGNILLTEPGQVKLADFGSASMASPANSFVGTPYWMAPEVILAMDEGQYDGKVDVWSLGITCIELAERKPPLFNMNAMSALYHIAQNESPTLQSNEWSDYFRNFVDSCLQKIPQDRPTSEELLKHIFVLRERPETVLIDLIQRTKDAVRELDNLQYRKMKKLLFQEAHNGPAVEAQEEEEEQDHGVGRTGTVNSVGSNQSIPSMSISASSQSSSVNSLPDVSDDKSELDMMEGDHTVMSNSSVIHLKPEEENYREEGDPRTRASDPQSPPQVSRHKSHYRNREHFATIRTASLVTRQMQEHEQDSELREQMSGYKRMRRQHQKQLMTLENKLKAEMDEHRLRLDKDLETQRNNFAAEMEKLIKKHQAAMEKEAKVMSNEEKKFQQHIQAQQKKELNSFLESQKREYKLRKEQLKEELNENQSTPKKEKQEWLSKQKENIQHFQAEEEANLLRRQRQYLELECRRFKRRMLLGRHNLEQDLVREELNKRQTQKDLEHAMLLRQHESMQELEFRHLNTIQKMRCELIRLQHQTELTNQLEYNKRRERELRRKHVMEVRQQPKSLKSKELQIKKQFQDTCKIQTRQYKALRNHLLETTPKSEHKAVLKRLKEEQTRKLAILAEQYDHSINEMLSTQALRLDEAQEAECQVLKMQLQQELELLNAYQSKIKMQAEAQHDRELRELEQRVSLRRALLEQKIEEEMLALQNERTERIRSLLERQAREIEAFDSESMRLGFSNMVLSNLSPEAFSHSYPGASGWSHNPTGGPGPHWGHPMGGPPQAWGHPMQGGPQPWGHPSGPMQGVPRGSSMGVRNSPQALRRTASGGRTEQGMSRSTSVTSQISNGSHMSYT
Experimental: as §1

TYK2 = target: T7, TYK2 (Homo sapiens, UniProt P29597)
T7 construct: endogenous in cells; host or cells: K562
Experimental: as §1

YES1 = target: T8, YES1 (Homo sapiens, UniProt P07947)
T8 construct: endogenous in cells; host or cells: K562
Experimental: as §1

[1] = read-out: RB50 (the source's name)
[2] = KAM 0.001-10 uM, read-out: RB50 (the source's name)

T1 sequence (O60307 whole entry): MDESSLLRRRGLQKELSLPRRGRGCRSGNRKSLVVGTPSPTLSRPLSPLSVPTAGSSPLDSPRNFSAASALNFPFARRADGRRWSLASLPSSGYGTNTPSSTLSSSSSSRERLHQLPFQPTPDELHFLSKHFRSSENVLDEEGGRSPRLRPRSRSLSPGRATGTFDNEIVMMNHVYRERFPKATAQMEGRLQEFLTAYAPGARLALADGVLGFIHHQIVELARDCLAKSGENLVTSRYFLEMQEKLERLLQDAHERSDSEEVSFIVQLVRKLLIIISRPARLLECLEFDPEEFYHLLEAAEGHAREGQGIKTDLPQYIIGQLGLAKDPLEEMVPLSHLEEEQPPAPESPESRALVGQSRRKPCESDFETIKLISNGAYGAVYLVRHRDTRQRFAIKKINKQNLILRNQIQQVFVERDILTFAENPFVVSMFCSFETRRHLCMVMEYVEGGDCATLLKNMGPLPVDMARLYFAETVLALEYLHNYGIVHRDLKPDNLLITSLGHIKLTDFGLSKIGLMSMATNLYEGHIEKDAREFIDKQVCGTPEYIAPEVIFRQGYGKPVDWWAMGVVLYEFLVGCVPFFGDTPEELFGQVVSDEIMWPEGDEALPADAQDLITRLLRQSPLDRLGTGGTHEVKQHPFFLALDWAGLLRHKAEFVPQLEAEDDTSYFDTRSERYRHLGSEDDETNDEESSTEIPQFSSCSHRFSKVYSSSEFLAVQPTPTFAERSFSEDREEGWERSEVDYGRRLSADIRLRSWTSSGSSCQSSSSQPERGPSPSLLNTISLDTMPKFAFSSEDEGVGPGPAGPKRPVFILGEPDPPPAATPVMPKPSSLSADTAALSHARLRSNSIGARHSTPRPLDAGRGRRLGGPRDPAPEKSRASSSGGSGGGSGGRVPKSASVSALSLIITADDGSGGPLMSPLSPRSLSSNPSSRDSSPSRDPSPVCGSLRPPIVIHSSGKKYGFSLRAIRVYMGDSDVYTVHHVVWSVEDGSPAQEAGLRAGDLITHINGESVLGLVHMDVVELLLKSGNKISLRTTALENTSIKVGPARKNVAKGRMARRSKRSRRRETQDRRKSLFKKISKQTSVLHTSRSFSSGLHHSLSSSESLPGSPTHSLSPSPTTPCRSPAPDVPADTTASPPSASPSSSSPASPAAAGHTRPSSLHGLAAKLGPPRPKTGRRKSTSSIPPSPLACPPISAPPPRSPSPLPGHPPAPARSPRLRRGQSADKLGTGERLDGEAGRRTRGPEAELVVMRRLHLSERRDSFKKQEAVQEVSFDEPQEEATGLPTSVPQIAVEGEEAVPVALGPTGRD
T5 sequence (O00506 whole entry): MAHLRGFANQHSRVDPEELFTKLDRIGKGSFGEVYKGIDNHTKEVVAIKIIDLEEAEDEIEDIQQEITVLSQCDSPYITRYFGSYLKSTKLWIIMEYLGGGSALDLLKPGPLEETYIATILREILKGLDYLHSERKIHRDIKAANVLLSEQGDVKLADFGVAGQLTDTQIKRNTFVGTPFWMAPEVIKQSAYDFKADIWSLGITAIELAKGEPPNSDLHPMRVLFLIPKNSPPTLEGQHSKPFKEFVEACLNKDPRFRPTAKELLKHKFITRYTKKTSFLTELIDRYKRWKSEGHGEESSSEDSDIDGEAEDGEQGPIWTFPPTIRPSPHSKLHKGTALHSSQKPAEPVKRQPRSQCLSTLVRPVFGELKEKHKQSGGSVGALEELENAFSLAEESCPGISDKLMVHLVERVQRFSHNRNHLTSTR
T2 sequence (Q04912 25-1400): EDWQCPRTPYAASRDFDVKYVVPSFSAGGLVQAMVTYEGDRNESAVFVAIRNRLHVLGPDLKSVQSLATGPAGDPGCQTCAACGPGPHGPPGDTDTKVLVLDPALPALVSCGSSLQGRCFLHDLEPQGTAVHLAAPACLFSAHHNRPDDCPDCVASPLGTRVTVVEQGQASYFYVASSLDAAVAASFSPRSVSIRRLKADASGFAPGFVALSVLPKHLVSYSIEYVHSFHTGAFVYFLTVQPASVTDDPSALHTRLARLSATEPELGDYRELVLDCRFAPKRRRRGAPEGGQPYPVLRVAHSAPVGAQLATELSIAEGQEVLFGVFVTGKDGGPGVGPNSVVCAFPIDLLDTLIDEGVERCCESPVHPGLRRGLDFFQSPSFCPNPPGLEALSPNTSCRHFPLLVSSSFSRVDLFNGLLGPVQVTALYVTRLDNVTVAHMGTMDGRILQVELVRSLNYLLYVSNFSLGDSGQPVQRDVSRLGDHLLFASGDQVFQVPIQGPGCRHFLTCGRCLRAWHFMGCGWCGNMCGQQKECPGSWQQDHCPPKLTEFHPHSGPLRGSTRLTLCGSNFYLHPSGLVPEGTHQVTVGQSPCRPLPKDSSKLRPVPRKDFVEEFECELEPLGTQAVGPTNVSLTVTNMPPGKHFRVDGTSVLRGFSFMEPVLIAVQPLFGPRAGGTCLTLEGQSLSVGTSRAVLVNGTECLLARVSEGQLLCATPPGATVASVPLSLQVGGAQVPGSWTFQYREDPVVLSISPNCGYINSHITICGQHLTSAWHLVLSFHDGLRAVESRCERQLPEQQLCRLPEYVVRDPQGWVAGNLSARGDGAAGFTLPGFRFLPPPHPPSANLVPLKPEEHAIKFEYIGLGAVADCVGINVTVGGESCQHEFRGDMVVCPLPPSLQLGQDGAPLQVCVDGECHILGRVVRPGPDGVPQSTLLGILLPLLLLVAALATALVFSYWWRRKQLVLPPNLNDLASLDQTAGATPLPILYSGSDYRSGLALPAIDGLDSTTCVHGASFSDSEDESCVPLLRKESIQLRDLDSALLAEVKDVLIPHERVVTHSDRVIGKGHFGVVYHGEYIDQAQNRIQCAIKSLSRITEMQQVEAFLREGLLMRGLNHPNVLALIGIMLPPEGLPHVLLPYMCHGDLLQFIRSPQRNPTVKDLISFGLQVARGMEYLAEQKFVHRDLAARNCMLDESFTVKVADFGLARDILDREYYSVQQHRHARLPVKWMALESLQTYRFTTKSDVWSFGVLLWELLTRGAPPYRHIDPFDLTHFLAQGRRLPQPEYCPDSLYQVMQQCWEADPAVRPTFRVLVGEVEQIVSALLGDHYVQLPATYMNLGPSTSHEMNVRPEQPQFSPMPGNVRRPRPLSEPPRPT
T3 sequence (P23443 whole entry): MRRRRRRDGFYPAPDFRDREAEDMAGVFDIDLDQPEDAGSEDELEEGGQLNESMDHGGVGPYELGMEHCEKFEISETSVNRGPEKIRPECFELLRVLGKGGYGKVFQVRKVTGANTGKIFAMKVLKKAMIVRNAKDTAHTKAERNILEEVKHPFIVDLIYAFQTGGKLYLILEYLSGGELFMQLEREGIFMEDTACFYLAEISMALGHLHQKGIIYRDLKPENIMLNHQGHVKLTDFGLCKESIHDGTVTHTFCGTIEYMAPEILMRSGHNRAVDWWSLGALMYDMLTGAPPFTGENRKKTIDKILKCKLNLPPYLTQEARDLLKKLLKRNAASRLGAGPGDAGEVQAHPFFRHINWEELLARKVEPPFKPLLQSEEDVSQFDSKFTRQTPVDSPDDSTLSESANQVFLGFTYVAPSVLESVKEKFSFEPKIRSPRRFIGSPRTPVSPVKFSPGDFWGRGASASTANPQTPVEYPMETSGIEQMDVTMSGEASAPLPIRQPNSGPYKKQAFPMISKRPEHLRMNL
T8 sequence (P07947 whole entry): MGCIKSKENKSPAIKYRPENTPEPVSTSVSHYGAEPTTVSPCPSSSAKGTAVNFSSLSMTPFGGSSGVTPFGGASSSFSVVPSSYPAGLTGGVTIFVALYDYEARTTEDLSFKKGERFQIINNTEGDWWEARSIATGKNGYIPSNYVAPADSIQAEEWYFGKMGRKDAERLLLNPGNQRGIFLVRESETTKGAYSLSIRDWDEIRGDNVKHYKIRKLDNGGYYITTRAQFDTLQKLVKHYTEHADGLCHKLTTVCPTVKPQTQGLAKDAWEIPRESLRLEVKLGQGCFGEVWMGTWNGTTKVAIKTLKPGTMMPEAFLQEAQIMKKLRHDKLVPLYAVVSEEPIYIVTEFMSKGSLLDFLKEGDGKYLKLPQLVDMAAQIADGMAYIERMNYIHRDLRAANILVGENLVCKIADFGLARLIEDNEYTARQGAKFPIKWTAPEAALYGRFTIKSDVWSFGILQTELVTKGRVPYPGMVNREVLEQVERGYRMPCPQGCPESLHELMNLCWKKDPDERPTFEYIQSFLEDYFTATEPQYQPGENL

N#CCc1ccc(Nc2nc(NCCCN)cc(Nc3cc(C4CC4)[nH]n3)n2)cc1 [KAM]
median Log10 fold change (MAST3; 0.001 uM KAM): -0.04433 | median Log10 fold change (MAST3; 0.01 uM KAM): -0.01527 | median Log10 fold change (MAST3; 0.1 uM KAM): -0.1684 | median Log10 fold change (MAST3; 1 uM KAM): -0.3441 | median Log10 fold change (MAST3; 10 uM KAM): -0.4667 | pIC50 (MAST3; [1]): 6.11 | pIC50 (MST1R; [2]): < 5.00 | 0.001 uM KAM (MST1R; relative to 0 uM KAM = 0): -0.1284 | 0.01 uM KAM (MST1R; relative to 0 uM KAM = 0): -0.04073 | 0.1 uM KAM (MST1R; relative to 0 uM KAM = 0): -0.1983 | 1 uM KAM (MST1R; relative to 0 uM KAM = 0): -0.07265 | 10 uM KAM (MST1R; relative to 0 uM KAM = 0): -0.08067 | pIC50 (RPS6KB1; [2]): < 5.00 | 0.001 uM KAM (RPS6KB1; relative to 0 uM KAM = 0): 0.05992 | 0.01 uM KAM (RPS6KB1; relative to 0 uM KAM = 0): 0.07406 | 0.1 uM KAM (RPS6KB1; relative to 0 uM KAM = 0): 0.2008 | 1 uM KAM (RPS6KB1; relative to 0 uM KAM = 0): 0.1222 | 10 uM KAM (RPS6KB1; relative to 0 uM KAM = 0): 0.1654 | pIC50 (SIK3; [2]): < 5.00 | 0.001 uM KAM (SIK3; relative to 0 uM KAM = 0): -0.07223 | 0.01 uM KAM (SIK3; relative to 0 uM KAM = 0): -0.0771 | 0.1 uM KAM (SIK3; relative to 0 uM KAM = 0): -0.08847 | 1 uM KAM (SIK3; relative to 0 uM KAM = 0): -0.01623 | 10 uM KAM (SIK3; relative to 0 uM KAM = 0): -0.07209 | pIC50 (STK25; [2]): < 5.00 | 0.001 uM KAM (STK25; relative to 0 uM KAM = 0): -0.05569 | 0.01 uM KAM (STK25; relative to 0 uM KAM = 0): -0.0234 | 0.1 uM KAM (STK25; relative to 0 uM KAM = 0): -0.1788 | 1 uM KAM (STK25; relative to 0 uM KAM = 0): -0.2616 | 10 uM KAM (STK25; relative to 0 uM KAM = 0): -0.2742 | median Log10 fold change (TAOK1; 0.001 uM KAM): 0.00525 | median Log10 fold change (TAOK1; 0.01 uM KAM): 0.00511 | median Log10 fold change (TAOK1; 0.1 uM KAM): -0.09468 | median Log10 fold change (TAOK1; 1 uM KAM): -0.2373 | median Log10 fold change (TAOK1; 10 uM KAM): -0.3152 | pIC50 (TAOK1; [1]): 5.38 | median Log10 fold change (TYK2; 0.001 uM KAM): -0.01748 | median Log10 fold change (TYK2; 0.01 uM KAM): -0.01468 | median Log10 fold change (TYK2; 0.1 uM KAM): -0.1723 | median Log10 fold change (TYK2; 1 uM KAM): -0.4058 | median Log10 fold change (TYK2; 10 uM KAM): -0.4958 | pIC50 (TYK2; [1]): 6.27 | median Log10 fold change (YES1; 0.001 uM KAM): 0.00764 | median Log10 fold change (YES1; 0.01 uM KAM): 0.01465 | median Log10 fold change (YES1; 0.1 uM KAM): -0.1546 | median Log10 fold change (YES1; 1 uM KAM): -0.4462 | median Log10 fold change (YES1; 10 uM KAM): -0.6732 | pIC50 (YES1; [1]): 6.34

Source: article PMC5513037, “Examining the influence of specificity ligands and ATP-competitive ligands on the overall effectiveness of bivalent kinase inhibitors” (Proteome Science, 2017)
